Drawing on PMC2409895, “Antitumour efficacy of VEGFR2 tyrosine kinase inhibitor correlates with expression of VEGF and its receptor VEGFR2 in tumour models” (British Journal of Cancer, 2004), this text covers IC50 for two compounds.

The structures appear in SMILES notation.

For test [1], the system named is HUVEC grown in presence of bFGF. The experiment in a line: bFGF-induced HUVEC proliferation (BrdU incorporation). Format: cell-based. The note with it: Homo sapiens, bFGF 0.3 ng ml^−1, 72 h. The method, then:
(§1) Effect of kinase inhibitors on cell proliferation was measured using BrdU incorporation method using commercially available kits (Roche Diagnostics, Indianapolis, IN, USA). Briefly, HUVEC were seeded in a medium containing 5% FBS in type 1 Collagen-coated 96-well plates and incubated overnight at 37°C, 5% CO2. The medium was aspirated from the cells, and various concentrations of kinase inhibitors in serum-free medium were added to each well. After 30 min, VEGF (10 ng ml^−1) or bFGF (0.3 ng ml^−1) was added to the wells. Cells were incubated for an additional 72 h and BrdU (10 μM) was added during the last 18–24 h of incubation. Data were fitted with a curve described by the equation, y=Vmax × (1−(x/(K+x))), where K is equal to the IC50.
Background: Dividing cells build labelled thymidine or BrdU into new DNA.

Test [2] relates to HUVEC grown in presence of VEGF. As to the kind of experiment: VEGF-induced HUVEC proliferation (BrdU incorporation). The test is classed as cell-based. The note with it: Homo sapiens, VEGF 10 ng ml^−1, 72 h. The method, then:
as §1

For another test, the target named is T1, human VEGFR2 kinase (Homo sapiens, UniProt P35968).
T1 construct: GST-fusion protein encoding the catalytic carboxyl-terminus of human VEGFR kinase 1, 2, or 3; made in house; host or cells: baculovirus expression system
T1 sequence (P35968 834-1162 limits assumed): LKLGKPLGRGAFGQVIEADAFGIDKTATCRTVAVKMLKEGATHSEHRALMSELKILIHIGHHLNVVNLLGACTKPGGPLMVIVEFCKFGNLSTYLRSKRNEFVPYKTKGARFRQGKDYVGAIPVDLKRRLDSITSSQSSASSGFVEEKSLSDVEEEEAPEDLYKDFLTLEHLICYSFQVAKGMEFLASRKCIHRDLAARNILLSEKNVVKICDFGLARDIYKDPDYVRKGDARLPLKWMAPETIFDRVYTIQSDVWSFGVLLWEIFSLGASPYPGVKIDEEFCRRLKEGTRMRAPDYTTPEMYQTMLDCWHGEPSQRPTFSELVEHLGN
As to the kind of experiment: VEGFR2 kinase assay (HTRF). The test is classed as biochemical. The note with it: Table 1. How it is done: Vascular endothelial growth factor receptor kinase assays were carried out in a homogenous time-resolved fluorescence (HTRF) format in 384-well microtitre plates using a purified, baculovirus-expressed GST-fusion protein encoding the catalytic carboxyl-terminus of human VEGFR kinase 1, 2, or 3. Reactions were initiated by the addition of 10 μl of activated VEGFR kinase (1 nM, 0.1 M HEPES pH 7.5, 0.1 mg ml^−1 BSA, and 0.30 mM DTT) to 10 μl of substrate (360 nM biotin-aminohexyl-EEEEYFELVAKKKK-NH2 peptide, 75 μM ATP, 10 mM MgCl2) and 1 μl of small molecule inhibitor at various concentrations. Plates were incubated at room temperature for 60 min, and the reaction was stopped by the addition of 20 μl 100 mM EDTA. Homogenous time-resolved fluorescence reagents (20 μl 15 nM streptavidin-linked allophycocyanin, 1 nM europium-labelled anti-phosphotyrosine antibody in 0.1 M HEPES, pH 7.5, 0.1 mg ml^−1 BSA) were added and plates were incubated for a minimum of 10 min. The fluorescence at 665 nm was measured with a Victor plate reader (Wallac, Shelton, CT, USA) using a time delay of 50 μs. […] Data were fitted with a curve described by: y=((Vmax × x)/(K+x)+Y2), where Vmax is the upper asymptote, Y2 is the Y intercept, and K is the IC50.

Broadly, the IC50 is the concentration at which inhibition is half-maximal. As to `Cc1n[nH]c2cc(N(C)c3ccnc(Nc4cc(S(N)(=O)=O)ccc4Cl)n3)ccc12` [GW695612, 4-chloro-3-({4-[methyl(3-methyl-1H-indazol-6-yl)amino]pyrimidin-2-yl}amino)benzenesulphonamide], the values for the IC50 (in test [1]; in test [2]; on human VEGFR2 kinase) were 3840 nM, 260 nM and 1.1 nM, respectively.
On to `COc1cc(Nc2nccc(Nc3ccc4c(C)n[nH]c4c3)n2)cc(OC)c1OC` [GW612286, N^4-(3-methyl-1H-indazol-6-yl)-N^2-(3,4,5-trimethoxyphenyl)pyrimidine-2,4-diamine], for which the 50% inhibitory concentration (IC50) in test [1] worked out at 3630 nM; in test [2] it was 180 nM; on human VEGFR2 kinase, 8 nM.
